“Also recorded” adds a separate entry of the source.
Legend:
[1] = molecular target: T1, IDH2 (Homo sapiens, UniProt P48735); experiment: IDH2 in vitro activity assay (NADPH-coupled diaphorase/resazurin); type: biochemical; conditions: known inhibitor control
T1 construct: purchased active motif 31615
T1 sequence (P48735 40-452): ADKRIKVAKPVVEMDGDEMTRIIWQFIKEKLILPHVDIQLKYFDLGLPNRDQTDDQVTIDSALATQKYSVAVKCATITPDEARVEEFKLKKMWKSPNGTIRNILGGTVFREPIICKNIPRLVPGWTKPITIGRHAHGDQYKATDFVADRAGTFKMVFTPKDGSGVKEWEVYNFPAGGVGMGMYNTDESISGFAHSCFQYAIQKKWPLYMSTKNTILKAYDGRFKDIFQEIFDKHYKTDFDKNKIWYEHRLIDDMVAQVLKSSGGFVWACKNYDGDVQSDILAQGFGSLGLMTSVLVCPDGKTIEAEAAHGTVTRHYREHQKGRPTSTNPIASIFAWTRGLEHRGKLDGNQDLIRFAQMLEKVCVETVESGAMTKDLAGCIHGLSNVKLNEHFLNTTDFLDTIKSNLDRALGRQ
Experimental: Recombinant human isocitrate dehydrogenase was purchased from active motif (Carlsbad, USA, Cat#
Activity assays were performed as previously described with minor
modifications.12 Briefly, the catalytic activity of converting is ocitrate to 2-oxogluterate (α-
ketoglutarate) converting the cofactor NADP+ to NADPH was measured by a NADPH-coupled assay.
The NADPH-dependent diaphorase (Sigma-Aldrich, St. Louis, USA, Cat# SLBT8928) converted resazurin
for activity read-out. To IDH2 (2 nM) in assay buffer (150 mM NaCl, 50 mM K2HPO4, 10 mM MnCl2, 10
mercaptoethanol (cend= 2.5 mM) for a total reaction volume of 79 µL per well (black 96-well plate, 4
replicates per condition). Conditions lacking IDH2 were added as control. After addition of 1 µL of
vehicle controls, the mixture was incubated at 25 °C for 1 h in the dark. Subsequently, the reaction was
initiated by addition of 20 µL of substrate mix (0.2 mM isocitrate, 60 µg/mL diaphorase, 200 µM
resazurin in assay buffer). Fluorescence was continuously measured using an Infinite M200 pro (Tecan,
the fluorescence increases were calculated via linear regression using GraphPad Prism (version 9).

[2] = tested on: periodontal ligament cell line (PDL‐hTERT); experiment: Whole proteome analysis and pathway analysis of treated PDL-hTERT cells; type: cell-based, human; set-up: dose or concentration left out as unconfirmed; conditions: same concentrations ([…] and […] µM), 3 days, compared with Ciprofloxacin
[3] = tested on: HEK‐293 and PDL‐hTERT cells; experiment: MTT assay, relative metabolic activity after 3 days; type: cell-based, human; conditions: 3 days of treatment
Experimental: Methods and Experimental Procedures
(Alfa Aesar, Haverhill, USA, Cat# J66943 ) stocks were prepared in sterile -filtered 0.1 N HCl to a
maximum concentration of 50 mM. HCl was used as vehicle control, diluted in culture medium, and
Cell culture experiments were performed in HEK 293, A549 or PDL-hTERT cells1 cultured in DMEM high
glucose medium supplemented with 10% FCS and 2 mM glutamine ( all, Sigma-Aldrich, St. Louis, USA,
Cat# G7513) in 5% CO2 atmosphere at 37 °C in Heracell 150i incubators (Thermo Fisher Scientific,
Waltham, USA). The human periodontal ligament (PDL -hTERT) cell line was provided by Prof. Denitsa
Docheva. During standard cell passaging accutase (Sigma-Aldrich) or 2,5x trypsin/0.5% EDTA in PBS
(Capricorn Scientific, Ebsdorfergrund, Germany) was used for cell detachment. Cell dishes in various
sizes (10 cm, 15 cm) and flasks (T75, T175) were used for cultivation (Sarstedt, Nümbrecht, Germany,
purchased from Thermo Fisher Scientific, Waltham, USA, Cat# 130184, 130188.
HEK or PDL-hTERT cells (1,5 x 10^3 cells/well) were seeded into 96 -well plates and grown for 24 h. […]
removed by suction and the formed formazan crystals dissolved in 200 μL DMSO. The read-out was
performed with an Infinite M200 Pro microplate reader (Tecan, Männedorf, Switzerland) at 570 nm
and background was subtracted at 630 nm. The absorbance values were normalized to DMSO/0.1 N […]

[4] = molecular target: NUDT1 (Homo sapiens, UniProt P36639); experiment: NUDT1 in vitro activity assay (malachite green); type: biochemical; set-up: Full length NUDT1 gene synthesis; N-terminal His tag with thrombin site from pET28a(+) (NdeI/XhoI) (N, cleaved yes); made in house; host or cells: E. coli BL21 (DE3); conditions: tested 1-500 µM; highest tested 500 µM
[5] = molecular target: T2, ADAL1 (Homo sapiens, UniProt Q6DHV7); experiment: ADAL1 in vitro activity assay (N6-methyl-AMP absorbance shift); type: biochemical; conditions: tested up to 500 µM
T2 construct: Full length ADAL1 gene synthesis; made in house; host or cells: E. coli BL21 (DE3)
T2 sequence (Q6DHV7 1-355): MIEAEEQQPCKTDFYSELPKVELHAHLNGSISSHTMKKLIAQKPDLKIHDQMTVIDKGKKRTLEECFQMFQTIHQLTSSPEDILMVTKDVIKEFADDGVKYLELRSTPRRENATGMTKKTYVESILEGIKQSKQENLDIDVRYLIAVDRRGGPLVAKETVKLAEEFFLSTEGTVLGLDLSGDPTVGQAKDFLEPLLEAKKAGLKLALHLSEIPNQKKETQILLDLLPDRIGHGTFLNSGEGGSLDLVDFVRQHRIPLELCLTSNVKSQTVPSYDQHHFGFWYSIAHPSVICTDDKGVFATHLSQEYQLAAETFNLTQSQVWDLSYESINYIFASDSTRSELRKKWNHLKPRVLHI
Experimental: Cytiva, Marlborough, USA, Cat# 6818-1304). Nickel-affinity chromatography purification was
performed with Äkta Pure system (GE Healthcare, Chicago, USA) using an HisTrap HP (5 mL, Cytiva,
Marlborough, USA, Cat# 17-5248) column equilibrated in buffer A. The filtered lysate was applied via
the sample pump and subsequently the column was washed for 15 column volumes (CV) with buffer
A, before gradient elution with buffer B (50 mM Tris pH 8.0, 300 mM NaCl, 5 mM β-mercaptoethanol,
0.1% (v/v) NP40, 10% (v/v) glycerol and 400 mM imidazole) from 0% to 100% buffer B over for 25 CV.
ADAL1 containing fraction s were identified via SDS-PAGE, pooled and dialyzed in buffer 1 (20 mM Tris
pH 8.0, 1 mM DTT, 10% (v/v) glycerol ) in a dialysis membrane ( Carl Roth, Karlsruhe, Germany, Cat#
E659.1) overnight at 4 °C. […]
methyl-AMP (Cayman Chemical, Ann Arbor, USA, Cat# 23382) to […] by ADAL1 was monitored by
the shift of the absorbance maxima of educt ( 265 nm) and product (250 nm). […]
substrate N6-methyl-AMP (1 µL of 20 mM stock in PBS). The absorbance at 270 nm was continuously
measured using a Infinite M200 Pro (Tecan, Männedorf, Switzerland) plate reader. […]
the absorbance readings were calculated via linear regression using GraphPad Prism (version 9). […]
residual activity of compound treated protein was determined in comparison to vehicle -treated […]

Row | Compound | extent of IDH2 (wild-type) inhibition compared with the FQs [1] | regulation of ETC complex I and IV subunits [2] | approximate apparent IC50 (metabolic activity, MTT) [3] | NUDT1 in vitro activity, inhibition [4] | ADAL1 in vitro activity, effect [5]
1 | CC(C)(O)CNc1nc(Nc2ccnc(C(F)(F)F)c2)nc(-c2cccc(C(F)(F)F)n2)n1 [Enadisenib, Enasidenib] | similar | – | – | – | –
2 | C[C@H]1COc2c(N3CCN(C)CC3)c(F)cc3c(=O)c(C(=O)O)cn1c23 [Levofloxacin] | – | also observed using the same concentrations, although to a lesser extent | well above the reported plasma concentrations | only at the highest tested concentration (500 µM); also recorded: only significant at the highest concentration tested | no significant effect; also recorded: no inhibitory effect was detected
